{"source": "patent US7271148B2", "about": "“Inhibition of cellular proteases” (The Board of Regents of The University of Texas System, priority 1999, dated 2007)", "tested_on": "p21^cip1 abundance in HCMV-infected LU cells", "assay": "Western blot of p21cip1 abundance in HCMV-infected, density-arrested LU cells", "type": "cell-based, human", "protocol": "Cell culture and growth arrest. LU cells (3) were propagated in Eagle's minimum essential medium containing 10% fetal bovine serum and penicillin (100 units/ml)/streptomycin (100 μg/ml) in a 5% CO2 in air atmosphere. The cells were density-arrested as described previously in detail (18).\nVirus stocks and productive infection. The AD169 strain of HCMV was propagated in LU cells as previously described in detail (6). The infectivity of virus stocks was determined by plaque assay (3). Virus stocks typically had infectivities between 8.0×10^6 and 4.0×10^7 plaque-forming units (PFU)/milliliter. LU cells were infected with HCMV as described in detail by Bresnahan et al. (18). Virus stocks and cell cultures were routinely examined for mycoplasma.\nWestern blots. Polyclonal or monoclonal antibody for p21^cip1 was obtained from Santa Cruz Biotechnology, Inc. (Santa Cruz, Calif.). Monoclonal antibodies against m-calpain, μ-calpain or calpastatin were generously provided by Dr. R. I. Mellgren (see also 75). Cells were harvested as described previously (18) by dislodging the cells with a cell lifter in phosphate buffered saline. The cells were collected by sedimentation and lysed in NP-40 lysis buffer [50 mM Tris, pH 7.4, 50 mM NaCl, 0.5% NP-40, and 1 mM NaVO3, 50 mM NaF, 1mM phenylmethylsulfonyl fluoride (PMSF), 1 mM dithiothreitol (DTT), 25 μg/ml trypsin inhibitor, 25 μg/ml aprotinin, 1 mM benzamide, and 25 μg/ml pepstatin A added just before use]. Cellular debris was removed by sedimentation and the supernatant fluids were reserved. The protein concentration was determined by the BCA protein assay (Pierce, Rockford, Ill.). Whole cell extracts (40 μg/lane) were fractionated by SDS-polyacrylamide gel electrophoresis (PAGE), and the polypeptides were transferred to nitrocellulose membranes (Bio-Rad Laboratories, Hercules, Calif.) as described previously (18). Antigen-antibody reactions were detected with the enhanced chemiluminescent assay (Amersham Pharmacia Biotech) following the manufacturer's recommendations. […]\nFIGS. 9 and 10. The concentration effect of E64d on p21^cip1 abundance in HCMV-infected cells. 9: LU cells were density arrested as described in Materials and Methods. The cells were HCMV (5 PFU/cell) or mock infected, and at 48 hr PI were treated with selected concentrations of E64d. Whole cell lysates were prepared 6 hr later, and 40 μg of protein from each lysate was resolved by SDS-PAGE. The proteins were transferred to nitrocellulose and probed with antibodies to p21^cip1. Mock: mock-infected cells in the absence of drug. Control, untreated HCMV-infected cells. 0, DMSO solvent control, consisting of HCMV-infected cells treated with the same concentration of DMSO solvent (0.1%) contained in the highest concentration of E64d. 10: Represents the abundance of p21^cip1 determined by densitometric analysis of the data in FIG. 9.\nFIGS. 11 and 12. The concentration effect of Z-Leu-Leu-H on p21^cip1 abundance in HCMV-infected cells. 11. LU cells were density arrested as described in Materials and Methods. The cells were HCMV (5 PFU/cell) infected, and at 48 hr PI were treated with selected concentrations of Z-Leu-Leu-H. Whole cell lysates were prepared 6 hr later, and 40 μg of protein from each lysate was resolved by SDS-PAGE. The proteins were transferred to nitrocellulose and probed with antibodies to p21^cip1. Mock, Control, and 0 are defined as in the legend to FIG. 9. 12 : Represents the abundance of p21^cip1 determined by densitometric analysis of the data in FIG. 11.\nFIGS. 13 and 14. The time course for the effect of E64d on p21^cip1 abundance in HCMV-infected, density-arrested cells. 13: LU cells were density arrested, as described in Materials and Methods. The cells were HCMV (5 PFU/cell) or mock infected, and at the intervals indicated in the Fig., beginning 1 hr after infection, subsets of the cells were treated with E64d (100 μM). […]"}
{"molecule": "CC(C)C[C@H](NC(=O)[C@H]1O[C@@H]1C(=O)O)C(=O)NCCCCN=C(N)N", "note": "(relative stereo) [E64d, trans-epoxysuccinyl-L-leucylamido (4-guanidino)-butane]", "values": [{"measurement": "p21^cip1 abundance as % of that measured in mock-infected cells", "setting": "100 μM, HCMV-infected cells treated at 48 hr PI, lysates 6 hr later", "result": "about 85%"}, {"measurement": "increase in the abundance of p21^cip1", "setting": "E64d 100 μM from 48 hr PI, HCMV-infected cells, after 12 hr of treatment", "result": 4, "unit": "fold"}, {"measurement": "maximum level of p21^cip1 relative to that observed at 0 hr", "setting": "E64d 100 μM from 48 hr PI, HCMV-infected cells, up to 24 hr treatment", "result": "about 84%"}, {"measurement": "p21^cip1 levels versus absence of inhibitor over time course of infection (in words)", "setting": "E64d 100 μM up to 12 hr before harvest, HCMV-infected cells, 3 hr to 96 hr PI", "result": "consistently greater"}, {"measurement": "protection of p21^cip1, concentration effect (in words)", "setting": "HCMV-infected cells treated at 48 hr PI for 6 hr, selected concentrations up to 100 μM", "result": "directly dependent on the concentration"}]}
